The values below come from patent US20240279247A1, “PRODRUGS OF BORON COMPOUNDS AND THEIR USE IN TREATING BACTERIAL INFECTIONS” (priority 2022, published 2024).

The test system of one series is P. aeruginosa PAE 1001. As to the kind of experiment: In vitro antibacterial activity (MIC), P. aeruginosa. The format is cell-based. Particulars: Pseudomonas aeruginosa, PAE1001. The source says:
(§1) The in vitro activity of compounds described herein may be assessed by standard testing procedures such as the determination of minimum inhibitory concentration (MIC) as described in Approved Standard. Methods for Dilution Antimicrobial Susceptibility Tests for Bacteria that Grow Aerobically, 3rd ed., 1993, published by the National Committee for Clinical Laboratory standards, Villanova, Pennsylvania, USA. Low MIC values indicate high antibacterial activity, while high MIC values reveal a reduced antibacterial activity (with higher drug concentration required for pathogen eradication in the latter instance). Generally, MIC values of about ≤4-8 μg/mL indicate a therapeutic (i.e. suitable for therapy) potency for antibacterial drugs, while MIC values of ≥16 μg/mL indicate a lack of therapeutically useful activity for a test compound.

Another series deals with A. baumannii MABA 0001. The series is described as follows: In vitro antibacterial activity (MIC), A. baumannii. Particulars: Acinetobacter baumannii, MABA0001. The format is cell-based.
Source text: as §1

A further series concerns K. pneumoniae ATCC10031. As to the kind of experiment: In vitro antibacterial activity (MIC), K. pneumoniae. Particulars: Klebsiella pneumoniae. The format is cell-based.
Source text: as §1

The subject of a further series is E. coli MECO 002. The series is described as follows: In vitro antibacterial activity (MIC), E. coli. The format is cell-based. Particulars: Escherichia coli, MECO002.
Source text: as §1

Series [1] is described as follows: Pharmacokinetic study in rat (iv or oral gavage). In kind it is in vivo, SD rats. Particulars: SD rat; for AUC compared with that of Example 5, in words: oral. The source says: To further elucidate therapeutic potential of drug compounds, pharmacokinetic (PK) data is used to establish the key parameters predictive of the therapy outcome, such as area under the curve (AUC) for a plot monitoring the change in the systemic drug concentration over time. Thus, a higher AUC value indicates a greater exposure to the drug, commonly associated with a greater therapeutic potential due to a higher amount of drug available to combat the infection in a mammal. In contrast, a lower AUC value indicates a reduced exposure to the drug under study, resulting in a reduced amount of antibiotic available to combat bacterial infestations. To that end, the compounds described herein were tested in a rat PK model of oral administration performed analogously to methods described in the monograph Current Protocols in Pharmacology, 2005, 7.1.1-7.1.26, John Wiley & Sons, Inc.
All the compounds were administered to SD rats (The rats were randomly divided into groups with 3 rats in each group) by intravenous (iv) or oral gavage. Since the prodrugs are expected to convert to the parent molecule in vivo, only the parent compound (the compound of Example 5) was tested for all samples. […] This low bioavailability as well as low exposure (AUC) and C max make it inappropriate for development as oral drug. […] Because the prodrugs usually have larger molecular weight due to the introduction of prodrug substructures, the AUC is corrected by dose and molecular weight (MW) to give AUC per mole, to compare the efficiency among the prodrugs.

In series [2] the test system is Gram-negative bacteria, including Pseudomonas aeruginosa, Acinetobacter baumannii, Escherichia coli, and Klebsiella pneumoniae. The series is described as follows: In vitro antibacterial activity (MIC), summary over Gram-negative bacteria. The format is cell-based. Particulars: for in vitro antibacterial activity in words: prodrugs of Example 5, Table 1 data.
Source text: as §1

The test system of series [3] is Pseudomonas aeruginosa WPAE 1004. As to the kind of experiment: Pseudomonas aeruginosa mouse lung infection model. The format is in vivo. Particulars: ICR mouse, po 10 mg/kg once daily; for WPAE 1004, Lg (CFU/lung) 24 h: oral suspension; for Δ 24 h (Control-Theray), log reduction of CFU in lung: vs untreated control. The procedure: To establish the efficacy of the compounds described herein in vivo, a Pseudomonas aeruginosa mouse lung infection model was performed by administering test compounds analogously to the method described in Andes et al. in Antimicrobial Agents and Chemotherapy, 2002, 46(11), 3484-3489. In this model, a greater reduction in the bacterial colony-forming units (CFU) indicates more beneficial therapeutic effect (more bacterial eradication), while a lower CFU reduction indicates a lower effect (less bacterial eradication). The in vivo antibacterial effect is also referred to as “efficacy”, in contrast to the term “potency,” which is commonly used for in vitro activity (expressed as MIC).
In the Pseudomonas aeruginosa ICR mouse (The mice were randomly divided into groups with 6 mice in each group) lung infection, reference Example 5 was administered orally at 10 mg/kg once daily. […] As a prodrug for oral administration, the compound of Example 2 and 8 were also given by oral gavage at 10 mg/kg once daily. […] The data is strongly supportive of the prodrug of Example 2 and 8 being converted to reference compound of Example 5 after oral administration to exert the antibacterial activity. The data also supports a high conversion rate.

A short description of series [4]: Lung vs. plasma distribution study in mice. Particulars: Balb/C mouse. The format is in vivo.
Setting [5] is: in vivo, iv 5 mg/kg, parent compound (Example 5) measured.

One may read the MIC as the smallest concentration in the dilution series that meets the test's criterion for growth inhibition. As a reminder, the AUC is concentration integrated over time. As a reminder, the Cmax is the maximum level reached in the sampled fluid or tissue.

Where two headings read alike, the source gives them in different places.

For the compound `CC(=O)OC[C@H](COc1cccc2c1B(O)O[C@@H]2CN)OC(C)=O.Cl` [Example 1, (2S)-3-acetoxy-1-{[(3S)-3-(aminomethyl)-1-hydroxy-1,3-dihydrobenzo[2,1-c][1,2]oxaborol-7-yl]oxy}propan-2-yl acetate hydrochloride], the MIC with P. aeruginosa PAE 1001, against A. baumannii MABA 0001, with K. pneumoniae ATCC10031 and with E. coli MECO 002 was over 32 µg/mL in each case. Further, the “AUC compared with that of Example 5, in words” value (“AUC compared with that” for short) in series [1] is “significantly higher”.
Turning to `CCC(=O)OC[C@H](COc1cccc2c1B(O)O[C@@H]2CN)OC(=O)CC.Cl` [Example 6], the “AUC compared with that” value in series [1] is listed as “significantly higher”.
For the compound `CC(C)(C)C(=O)OC[C@H](COc1cccc2c1B(O)O[C@@H]2CN)OC(=O)C(C)(C)C.Cl` [Example 3, (2S)-3-[(2,2-dimethylpropanoyl)oxy]-1-{[(3S)-3-(aminomethyl)-1-hydroxy-1,3-dihydrobenzo[2,1-c][1,2]oxaborol-7-yl]oxy}propan-2-yl 2,2-dimethylpropanoate hydrochloride], the MIC against P. aeruginosa PAE 1001, with A. baumannii MABA 0001, in the series with K. pneumoniae ATCC10031 and with E. coli MECO 002 was over 32 µg/mL each time. Besides, the “AUC compared with that” value in series [1] was “significantly higher”. Also, the “in vitro antibacterial activity in words” value in series [2] was “inactive”.
As for `Cl.NC[C@H]1OB2O[C@H](CO)COC3C=CC=C1C23` (stereo partly drawn) [Example 5, [(2S,6R)-2-(aminomethyl)-4-bora-3,5,8-trioxatricyclo[7.3.1.04,13]trideca-1(12),10-dien-6-yl]methanol hydrochloride, reference compound], the MIC amounted to 2 µg/mL with P. aeruginosa PAE 1001, 2 µg/mL with A. baumannii MABA 0001, 4 µg/mL in the series with K. pneumoniae ATCC10031 and 2 µg/mL in the series on E. coli MECO 002. In addition, the “WPAE 1004, Lg (CFU/lung) 24 h” value in series [3] is listed as 8.56 ± 0.49 Lg (CFU/lung). In addition, the “Δ 24 h (Control-Theray), log reduction of CFU in lung” value in series [3] is given as 0.53 Lg (CFU/lung). The AUC in series [1] (setting [5]) came out at 5660 ng·h/mL. In addition, in series [1] (setting [5]), the Cmax is 6780 ng/mL. For the same compound, the “AUClast, lung” value in series [4] (Example 5 10 mg/kg iv, levels for Example 5) is 12822 ng·h/g. The Kp in series [4] (lung/plasma, Example 5 10 mg/kg iv, levels for Example 5, read-out: AUC ratio (lung/plasma)) came to 2.39. The half-life in series [4] (lung, Example 5 10 mg/kg iv, levels for Example 5, read-out: t1/2, lung (converted)) was 1.46 h; in series [4] (plasma, Example 5 10 mg/kg iv, levels for Example 5, read-out: t1/2, plasma (converted)), 1.87 h. Further, in series [4] (plasma, Example 5 10 mg/kg iv, levels for Example 5, read-out: AUClast, plasma), the AUC(0-t) was 5360 ng·h/mL. Also, the “MIC range against Gram-negative bacteria” value in series [2] (range over the four strains of Table 1) lay in the range of 2 to 4 µg/mL.
Turning to `CC(C)C(=O)OC[C@@H]1COc2cccc3c2B(O1)O[C@@H]3CN.Cl` [Example 4, [(2S,6S)-2-(aminomethyl)-4-bora-3,5,8-trioxatricyclo[7.3.1.04,13]trideca-1(12),9(13),10-trien-6-yl]methyl 2-methylpropanoate hydrogen chloride], the minimum inhibitory concentration (MIC) in the series with P. aeruginosa PAE 1001, against A. baumannii MABA 0001, with K. pneumoniae ATCC10031 and against E. coli MECO 002 was over 32 µg/mL throughout. In series [1], the “AUC compared with that” value is reported as “significantly higher”. Also, the “in vitro antibacterial activity in words” value in series [2] is “inactive”.
As for `CCC(=O)OC[C@@H]1COc2cccc3c2B(O1)O[C@@H]3CN.Cl` [Example 8, [(2S,6S)-2-(aminomethyl)-4-bora-3,5,8-trioxatricyclo[7.3.1.04,13]trideca-1(12),9(13),10-trien-6-yl]methyl propanoate hydrogen chloride], the MIC against P. aeruginosa PAE 1001, with A. baumannii MABA 0001, against K. pneumoniae ATCC10031 and against E. coli MECO 002 was over 32 µg/mL each time. For the same compound, the “WPAE 1004, Lg (CFU/lung) 24 h” value in series [3] is 8.45 ± 0.64 Lg (CFU/lung). In addition, the “Δ 24 h (Control-Theray), log reduction of CFU in lung” value in series [3] is 0.82 Lg (CFU/lung). For the same compound, the “AUC compared with that” value in series [1] is recorded as “significantly higher”. Moreover, the “in vitro antibacterial activity in words” value in series [2] was “inactive”.
In the case of `CC(=O)OC[C@@H]1COc2cccc3c2B(O1)O[C@@H]3CN.Cl` [Example 7, [(2S,6S)-2-(aminomethyl)-4-bora-3,5,8-trioxatricyclo[7.3.1.04,13]trideca-1(12),9(13),10-trien-6-yl]methyl acetate hydrogen chloride], the “AUC compared with that” value in series [1] is on record as “significantly higher”.
As to `CC(C)C(=O)OC[C@H](COc1cccc2c1B(O)O[C@@H]2CN)OC(=O)C(C)C.Cl` [Example 2, (2S)-1-{[(3S)-3-(aminomethyl)-1-hydroxy-1,3-dihydrobenzo[2,1-c][1,2]oxaborol-7-yl]oxy}-3-[(2-methylpropanoyl)oxy]propan-2-yl 2-methylpropanoate hydrochloride], the MIC in the series on P. aeruginosa PAE 1001, with A. baumannii MABA 0001, in the series with K. pneumoniae ATCC10031 and in the series with E. coli MECO 002 was over 32 µg/mL in each case. The “WPAE 1004, Lg (CFU/lung) 24 h” value in series [3] is on record as 7.50 ± 0.73 Lg (CFU/lung). Further, the “Δ 24 h (Control-Theray), log reduction of CFU in lung” value in series [3] is 1.77 Lg (CFU/lung). Also, the “AUC compared with that” value in series [1] is reported as “significantly higher”. Moreover, the “AUClast, lung” value in series [4] (Example 2 10 mg/kg po, levels for Example 2) stood at 968 ng·h/g; in series [4] (Example 2 10 mg/kg po, levels for Example 5) it was 23589 ng·h/g. Besides, in series [2], the “in vitro antibacterial activity in words” value is “inactive”.
